Laboratory results from PMC8540948, “Design and Synthesis of Newly Synthesized Acrylamide Derivatives as Potential Chemotherapeutic Agents against MCF-7 Breast Cancer Cell Line Lodged on PEGylated Bilosomal Nano-Vesicles for Improving Cytotoxic Activity” (Pharmaceuticals, 2021).

Legend:
[1] = system: breast cancer MCF-7 cell line; assay: MTT cytotoxicity against breast cancer MCF-7 cell line; type: cell-based; settings: MTT assay, 24 h drug treatment
Procedure: Compounds 2–5d were evaluated for their cytotoxic activities against breast cancer MCF-7 cell line by using an MTT colorimetric assay. Cisplatin was used as reference drug in this study. […] Additionally, the therapeutic safety of N-(3-hydroxy-4-methoxy) aryl amide derivative 4e was determined by screening its cytotoxic activity against normal breast cell line (MCF-10A) using an MTT colorimetric assay. […]
(§1) Cytotoxic activity of the newly prepared acrylamide derivatives 2–5d were carried out against breast MCF-7 cancer cell line using the MTT assay method. Compound 4e was screened for its effects on normal breast cell line MCF-10A. Cells at density of 1 × 10^4 were seeded in a 96-well plate at 37 °C for 48 h under 5% CO2. After incubation, the cells were treated with different concentrations of the test compounds and incubated for 24 h. After 24 h of drug treatment, 20 μL of MTT solution at 5 mg/mL was applied and incubated for 4 h at 37 °C. Dimethyl sulphoxide (DMSO) in volume of 100 µL was added to each well to dissolve the purple formazan that had formed. The color intensity of the formazan product, which represents the growth condition of the cells, is quantified by using an ELISA plate reader (EXL 800, USA) at 570 nm absorbance. The experimental conditions were carried out with at least three replicates, and the experiments were repeated at least three times.

β-tubulin = β-tubulin inhibition percentage by ELISA (tubulin polymerization inhibition); type: biochemical; settings: 5 μM concentration
MCF-7 cells = assay: Cell cycle analysis by DNA flow cytometry; type: cell-based; settings: MCF-7, 48 h, 4e at IC50 (2.11 μM), PTX 0.1 μM
Procedure: In order to study the mechanism of the cytotoxic activity of compound 4e, cell cycle analysis was investigated in breast cancer MCF-7 cells by DNA flow cytometry analysis at IC50 dose values of compound 4e for 48 h. Paclitaxel (PTX, 0.1 μM) was used as the reference drug in this study.
MCF-7 cells (2 × 10^5/well) were harvested and washed twice in PBS. After that, the cells were incubated at 37 °C and 5% CO2. The medium was replaced with DMSO 1% v/v containing the tested compound 4e (2.11 μM) and PTX (0.1 μM), then incubated for 48 h, washed twice in PBS, fixed with 70% ethanol, rinsed again with PBS and then stained with DNA fluorochrome PI for 15 min at 37 °C. The samples were analyzed by flow cytometry on a FACS Calibur flow cytometer (Becton and Dickinson, Heidelberg, Germany).

[2] = system: normal breast cell line (MCF-10A); assay: MTT cytotoxicity against normal breast cell line MCF-10A; type: cell-based; settings: MTT assay
Procedure: Compounds 2–5d were evaluated for their cytotoxic activities against breast cancer MCF-7 cell line by using an MTT colorimetric assay. Cisplatin was used as reference drug in this study. […] Additionally, the therapeutic safety of N-(3-hydroxy-4-methoxy) aryl amide derivative 4e was determined by screening its cytotoxic activity against normal breast cell line (MCF-10A) using an MTT colorimetric assay.
as §1

tubulin assembly = system: tubulin assembly; set-up: method as in PMID 25721862; settings: cited from earlier work

Row | SMILES | IC50 ([1]; Homo sapiens, MCF7, 24 h) [µM] | melting point [°C] | further results
1 | COc1ccc(NC(=O)C(=Cc2ccco2)NC(=O)c2cc(OC)c(OC)c(OC)c2)cc1 [Compound 4c, N-[1-(Furan-2-yl)-3-(4-methoxyphenylamino)-3-oxoprop-1-en-2-yl]-3,4,5-trimethoxybenzamide] | 26.2 ± 1.21 | 249 to 251 | 
2 | COc1cccc(CNC(=O)C(=Cc2ccco2)NC(=O)c2cc(OC)c(OC)c(OC)c2)c1 [Compound 5c, N-[1-(Furan-2-yl)-3-(3-methoxybenzylamino)-3-oxoprop-1-en-2-yl]-3,4,5-trimethoxybenzamide] | 2.61 | 164 to 166 | IC50 [1]: 3.03 ± 0.39 µM
3 | COc1ccc(NC(=O)C(=Cc2ccco2)NC(=O)c2cc(OC)c(OC)c(OC)c2)cc1O [Compound 4e, N-[1-(Furan-2-yl)-3-(3-hydroxy-4-methoxyphenylamino)-3-oxoprop-1-en-2-yl]-3,4,5-trimethoxybenzamide] | 2.11 ± 0.19 |  | β-tubulin inhibition percentage (β-tubulin): 89%; percentage of cells in pre-G1 phase (MCF-7 cells; untreated control 1.73%): 24.62%; percentage of cells in G2/M phase (MCF-7 cells; untreated control 8.39%): 42.50%; IC50 ([2]; Homo sapiens): 29.3 ± 1.21 µM
4 | COc1ccc(C(=O)/C=C/c2cc(C(=O)c3cc(OC)c(OC)c(OC)c3)ccc2OC)cc1N [Compound IV] |  |  | IC50 (tubulin assembly): 0.6 µM
5 | COc1cc(C(=O)NC(=Cc2ccco2)C(=O)NC(C)C)cc(OC)c1OC [Compound 3, N-[1-(Furan-2-yl)-3-(isopropylamino)-3-oxoprop-1-en-2-yl]-3,4,5-trimethoxybenzamide] | 4.73 ± 0.27 | 168 to 170 | 
6 | COc1ccccc1CNC(=O)C(=Cc1ccco1)NC(=O)c1cc(OC)c(OC)c(OC)c1 [Compound 5b, N-[1-(Furan-2-yl)-3-((2-methoxybenzyl)amino)-3-oxoprop-1-en-2-yl]-3,4,5-trimethoxybenzamide] | 5.03 ± 1.01 | 166 to 168 | 
7 | COc1cc(C(=O)NC(=Cc2ccco2)C(=O)Nc2ccc(O)cc2)cc(OC)c1OC [Compound 4d, N-[1-(Furan-2-yl)-3-(4-hydroxyphenylamino)-3-oxoprop-1-en-2-yl]-3,4,5-trimethoxybenzamide] | 18.4 ± 1.14 | 214 to 216 | 
8 | COc1cc(C(=O)NC(=Cc2ccco2)C(=O)Nc2ccccc2C)cc(OC)c1OC [Compound 4a, N-[1-(Furan-2-yl)-3-oxo-3-(o-tolylamino)prop-1-en-2-yl]-3,4,5-trimethoxybenzamide] | 27.3 ± 1.21 | 222 to 224 | 
9 | CCOC(=O)C(=Cc1ccco1)NC(=O)c1cc(OC)c(OC)c(OC)c1 [Compound 2, Ethyl 3-(Furan-2-yl)-2-(3,4,5-trimethoxybenzamido)acrylate] | > 50 | 126 to 128 | 
10 | N.N.[Cl][Pt][Cl] [Cisplatin, reference compound] |  |  | IC50 [1]: 1.02 ± 0.12 µM; IC50 [2]: 22.62 ± 0.19 µM
11 | COc1ccc(CNC(=O)C(=Cc2ccco2)NC(=O)c2cc(OC)c(OC)c(OC)c2)cc1OC [Compound 5d, N-[3-((3,4-Dimethoxybenzyl)amino)-1-(furan-2-yl)-3-oxoprop-1-en-2-yl]-3,4,5-trimethoxybenzamide] | 2.61 ± 0.32 | 124 to 126 | 
12 | COc1cc(C(=O)NC(=Cc2ccco2)C(=O)NCc2cccc(C)c2)cc(OC)c1OC [Compound 5a, N-[1-(Furan-2-yl)-3-((3-methylbenzyl)amino)-3-oxoprop-1-en-2-yl]-3,4,5-trimethoxybenzamide] | 3.92 ± 0.21 | 175 to 177 | 
13 | COc1cc(C(=O)NC(=Cc2ccco2)C(=O)Nc2cccc(C)c2)cc(OC)c1OC [Compound 4b, N-[1-(Furan-2-yl)-3-oxo-3-(m-tolylamino)prop-1-en-2-yl]-3,4,5-trimethoxybenzamide] | 10.4 ± 1.09 | 217 to 219 | 
